Activity calls are given as the source filed them. How the calls were made is not given here.
Tested on: GENE-TOX genotoxicity assays, various organisms and cells
Assay: GENE-TOX mutagenicity studies
[1] = Species/Cell Type: Drosophila melanogaster, Assay Type: Sex-linked recessive lethal gene mutation, Assay Code: SRL+, Evaluation Type: Evaluation A (Pre-1980)
[2] = Species/Cell Type: Escherichia coli polA (W3119 vs P3478), Assay Type: Rec-assay, DNA effects (bacterial DNA repair), Assay Code: RE1+, Evaluation Type: Evaluation A (Pre-1980)
[3] = Species/Cell Type: Neurospora crassa, Assay Type: Forward gene mutation, Assay Code: NEF+, Evaluation Type: Evaluation A (Pre-1980)
[4] = Species/Cell Type: Salmonella typhimurium (one or more of the five standard strains: TA98, TA100, TA1535, TA1537, and TA1538), Assay Type: Histidine reverse gene mutation, Ames assay, Assay Code: SALT, Evaluation Type: Evaluation A (Pre-1980)
[5] = Species/Cell Type: Human, Assay Type: Sister-chromatid exchange (SCE) in vitro, Assay Code: SC1T, Evaluation Type: Evaluation B (Post-1980)

With `C[As]=S` (centres undefined) the mutagenic call (Species/Cell Type: Bacillus subtilis (H17 vs M45), Assay Type: Rec-assay, spot test, DNA effects (bacterial DNA repair), Assay Code: REW+, Evaluation Type: Evaluation A (Pre-1980)) was “active; positive”.

In the case of `ClC(Cl)(Cl)C(Cl)(Cl)Cl`, the call (Species/Cell Type: Nonhuman, Assay Type: In vivo carcinogenicity studies, Assay Code: CCG+L, Evaluation Type: Evaluation A (Pre-1980)) is reported as “active; positive”, the mutagenic call (Species/Cell Type: Saccharomyces cerevisiae, Assay Type: Mitotic recombination or gene conversion, Assay Code: YEH-, Evaluation Type: Evaluation A (Pre-1980)) is reported as “inactive; negative” and the mutagenic call (Species/Cell Type: Salmonella typhimurium (one or more of the five standard strains: TA98, TA100, TA1535, TA1537, and TA1538), Assay Type: Histidine reverse gene mutation, Ames assay, Assay Code: SAL-, Evaluation Type: Evaluation A (Pre-1980)) is reported as “inactive; negative”.

In the case of `Cc1cc2nc3c(cc(N)c4ccccc43)oc-2cc1=[N+](C)C`, the mutagenic call (Species/Cell Type: Bacillus subtilis (H17 vs M45), Assay Type: Rec-assay, spot test, DNA effects (bacterial DNA repair), Assay Code: REW-, Evaluation Type: Evaluation A (Pre-1980)) is reported as “inactive; negative”.

In the case of `CCN(CC)CCNc1ccc(C)c2sc3ccccc3c(=O)c12`, the mutagenic call (Species/Cell Type: Drosophila melanogaster, Assay Type: Aneuploidy, whole sex chromosome loss, chromosome aberrations, Assay Code: DAC+M, Evaluation Type: Evaluation A (Pre-1980)) is reported as “active; positive”, the mutagenic call [1] is reported as “active; positive” and the mutagenic call [2] is reported as “active; positive”. For the same compound, the mutagenic call (Species/Cell Type: Fischer rat embryo (RLV/1706) cells, Assay Type: Cell transformation, viral enhanced, Assay Code: CTR+, Evaluation Type: Evaluation A (Pre-1980)) was “active; positive”, the mutagenic call (Species/Cell Type: Mouse lymphoma (L5178Y) cells, Assay Type: Forward gene mutation at the thymidine kinase (TK) locus, chromosome aberrations, Assay Code: L51+, Evaluation Type: Evaluation A (Pre-1980)) was “active; positive” and the mutagenic call (Species/Cell Type: Neurospora crassa, Assay Type: Aneuploidy, chromosome aberrations, Assay Code: NEN-, Evaluation Type: Evaluation A (Pre-1980)) was “inactive; negative”. For the same compound, the mutagenic call [3] was “active; positive”, the mutagenic call (Species/Cell Type: Salmonella typhimurium (one or more of the five standard strains: TA98, TA100, TA1535, TA1537, and TA1538), Assay Type: Histidine reverse gene mutation, Ames assay, Assay Code: SAL+*, Activation: With metabolic activation, Evaluation Type: Evaluation A (Pre-1980)) was “active; positive” and the mutagenic call [4] was “no conclusion”.

In the case of `CCc1cc(C(N)=S)ccn1`, the mutagenic call [5] is reported as “no conclusion”.

With `O=C1CC[C@@]2(O)[C@H]3Cc4ccc(O)c5c4[C@@]2(CCN3CC2CC2)[C@H]1O5` the mutagenic call [1] was “active; positive”, the mutagenic call (Species/Cell Type: Drosophila melanogaster, Sex: Male, Assay Type: Heritable translocation test, chromosome aberrations, Assay Code: DHT-, Evaluation Type: Evaluation A (Pre-1980)) was “inactive; negative” and the mutagenic call (Species/Cell Type: Human diploid fibroblasts, Assay Type: Unscheduled DNA synthesis (UDS) in vitro, DNA effects, Assay Code: UDH+, Evaluation Type: Evaluation A (Pre-1980)) was “active; positive”. For the same compound, the mutagenic call (Species/Cell Type: Saccharomyces cerevisiae, Assay Type: Mitotic recombination or gene conversion, Assay Code: YEC-, Evaluation Type: Evaluation A (Pre-1980)) was “inactive; negative” and the mutagenic call [4] was “no conclusion”.

`CN(C)C(=O)N1CC1` was tested, and the mutagenic call (Species/Cell Type: Schizosaccharomyces pombe, Assay Type: Reverse gene mutation, Assay Code: YEZ+, Evaluation Type: Evaluation A (Pre-1980)) was “active; positive”.

`CCN(CCO)CCCNc1c2ccc(Cl)cc2nc2ccc(OC)nc12` was tested, and the mutagenic call (Species/Cell Type: Chinese hamster ovary (CHO) cells, Assay Type: Forward gene mutation at the HPRT locus, Assay Code: CHOT, Evaluation Type: Evaluation B (Post-1980)) was “no conclusion”.

For `C(CCC1CO1)CC1CO1` (centres undefined), the mutagenic call [3] was “active; positive” and the mutagenic call (Species/Cell Type: Salmonella typhimurium (one or more of the five standard strains: TA98, TA100, TA1535, TA1537, and TA1538), Assay Type: Histidine reverse gene mutation, Ames assay, Assay Code: SAL+, Evaluation Type: Evaluation A (Pre-1980)) was “active; positive”.

With `COc1nn(CSP(=S)(OC)OC)c(=O)s1` the mutagenic call (Species/Cell Type: Nonhuman, Assay Type: Sister-chromatid exchange (SCE) in vitro, Assay Code: SC2+D*, Activation: With metabolic activation, Dose Response: With dose response, Evaluation Type: Evaluation B (Post-1980)) was “active; positive”.

For `CC(=O)Nc1ccc(CCc2ccccc2)cc1`, the mutagenic call [4] was “no conclusion”.

`Cc1occc(=O)c1O` was tested, and the mutagenic call (Species/Cell Type: Human lymphocytes, Assay Type: Sister-chromatid exchange (SCE) in vitro, Assay Code: SCL+D, Dose Response: With dose response, Evaluation Type: Evaluation B (Post-1980)) was “active; positive” and the mutagenic call (Species/Cell Type: Human, Assay Type: Sister-chromatid exchange (SCE) in vitro, Assay Code: SC1+D, Dose Response: With dose response, Evaluation Type: Evaluation B (Post-1980)) was “active; positive”.

In the case of `Nc1c(O)ccc2ccccc12`, the mutagenic call [2] is reported as “active; positive” and the mutagenic call [4] is reported as “no conclusion”.

For `Cc1cc2ccccc2oc1=O`, the mutagenic call (Species/Cell Type: Allium cepa, Assay Type: Chromosome aberrations, Assay Code: ALC+D, Dose Response: With dose response, Evaluation Type: Evaluation A (Pre-1980)) was “active; positive”.

For `O=S(O)CO`, the mutagenic call (Species/Cell Type: Drosophila melanogaster, Sex: Male, Assay Type: Heritable translocation test, chromosome aberrations, Assay Code: DHTT, Evaluation Type: Evaluation A (Pre-1980)) was “no conclusion”.

In the case of `CC(C)C[C@H](NC(=O)[C@@H](O)[C@H](N)Cc1ccccc1)C(=O)O`, the mutagenic call [5] is reported as “no conclusion”.

In the case of `CCCN(C)N=O`, the mutagenic call (Species/Cell Type: Chinese hamster lung (V79) cells, Assay Type: Forward gene mutation at the HPRT or ouabain locus, Assay Code: V79+, Evaluation Type: Evaluation A (Pre-1980)) is reported as “active; positive”.
